#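 Test compounds were applied to cells in 96-well plates for 48 hours at 5 doses. TGI marks complete inhibition of growth.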
# Key:
# Experiment in all cases: NCI tumour cell line growth inhibition, 48 h
# SK-MEL-28 melanoma = test system: SK-MEL-28 melanoma
# SF-268 CNS = test system: SF-268 CNS
# OVCAR-5 ovarian = test system: OVCAR-5 ovarian
# RXF 393 renal = test system: RXF 393 renal
# OVCAR-4 ovarian = test system: OVCAR-4 ovarian
# HCC-2998 colon = test system: HCC-2998 colon
# NCI-H23 lung = test system: NCI-H23 lung
# SN12C renal = test system: SN12C renal
# UACC-62 melanoma = test system: UACC-62 melanoma
# SNB-19 CNS = test system: SNB-19 CNS
# SF-295 CNS = test system: SF-295 CNS
# PC-3 prostate = test system: PC-3 prostate
# MDA-MB-231 breast = test system: MDA-MB-231 breast
# MDA-N = test system: MDA-N
Compound,TGI (SK-MEL-28 melanoma) [µM],TGI (SF-268 CNS) [µM],TGI (OVCAR-5 ovarian) [µM],TGI (RXF 393 renal) [µM],TGI (OVCAR-4 ovarian) [µM],TGI (HCC-2998 colon) [µM],TGI (NCI-H23 lung) [µM],TGI (SN12C renal) [µM],TGI (UACC-62 melanoma) [µM],TGI (SNB-19 CNS) [µM],TGI (SF-295 CNS) [µM],TGI (PC-3 prostate) [µM],TGI (MDA-MB-231 breast) [µM],TGI (MDA-N) [µM]
COc1ccc(-c2cc(=O)c3c(O)cc(O)cc3o2)c(OC)c1OC,> 100,> 100,> 100,> 100,> 100,> 100,> 100,> 100,> 100,> 100,> 100,–,–,–
CC(=O)OCC1OC(n2nc(Cc3ccccc3)c(=S)[nH]c2=S)C(OC(C)=O)C(OC(C)=O)C1OC(C)=O (stereo unspecified),> 100,52.2,> 100,44.6,39.6,–,44.6,55.3,35.5,78.8,> 100,> 100,30.6,–
CCCCC(=O)Nc1ccc2c(C)cc(-c3ccc(-c4cc(-c5ccc(C)cc5)cc(-c5ccc(-c6cc(C)c7ccc(NC(=O)CCCC)nc7n6)cc5)n4)cc3)nc2n1,> 100,> 100,> 100,–,> 100,> 100,> 100,> 100,> 100,> 100,> 100,> 100,> 100,> 100
CCCCc1ccc(C#CC#Cc2ccc(CCCC)s2)s1,–,> 100,> 100,> 100,> 100,> 100,> 100,> 100,> 100,–,> 100,–,> 100,> 100
O=c1c2ccccc2[nH]c2c(Cl)cc(Cl)c(N3CCCCC3)c12,> 100,–,> 100,–,> 100,> 100,76.5,55.8,> 10,77.9,> 100,> 100,> 100,63.1
COC(=O)/C(C#N)=C(\N)c1c(C)c2ccccc2oc1=N,> 100,–,> 100,> 100,> 100,–,–,> 100,> 100,> 100,> 100,> 100,> 100,> 100
N#Cc1ccc(C2NN=CC23C(=O)c2ccccc2OC3c2ccccc2)cc1 (stereo unspecified),> 100,> 100,> 100,> 100,> 100,> 100,> 100,> 100,> 100,> 100,> 100,> 100,> 100,–
COc1cccc(-c2c(-c3ccccc3)[nH]c(C)c2C(=O)ONC(=O)c2ccccc2)c1,30.4,22,26.2,17.1,> 24.5,27.4,25.9,12.8,26.9,23.8,7.64,23.9,22.9,–
COc1cccc(NC(=O)C(=O)C2C=CCS2(=O)=O)c1 (stereo unspecified),> 100,> 100,> 100,> 100,> 100,> 100,> 100,> 100,> 100,> 100,> 100,–,–,–
c1ccc([P+](c2ccccc2)(c2ccccc2)C2c3ccccc3-c3ccccc32)cc1,8.03,9.37,42,5.06,–,9.62,5.38,7.29,5.02,10.3,5.35,5.46,6.84,7.84
O=c1ccnc2ccc3n[nH][nH]c3c12,> 100,> 100,> 100,> 100,> 100,> 100,> 100,> 100,> 100,> 100,> 100,–,–,–
CN(C(=O)c1ccco1)C(=S)N1CCN(c2ccccn2)CC1,> 100,> 100,> 100,> 100,> 100,–,> 100,> 100,> 100,> 100,> 100,–,–,–
O=C(C/C=C/c1ccccc1)c1ccccc1,53.6,56.8,> 100,34,–,33.4,31.6,60.9,26.4,–,> 100,–,–,50.9
CC1C(c2ccccc2O)c2cc3c(cc2OC1N1CCOCC1)OCO3 (stereo unspecified),> 100,> 100,> 100,48.9,–,64.3,81,> 100,90.2,> 100,62,> 100,73.9,> 100
CN(CCCn1ccnc1[N+](=O)[O-])CCCn1ccnc1[N+](=O)[O-],> 100,> 100,> 100,> 100,> 100,–,> 100,> 100,> 100,–,> 100,> 100,> 100,> 100
COC(=O)C1C=CCON2CCc3c(n(S(=O)(=O)c4ccccc4)c4ccccc34)C12 (stereo unspecified),> 100,> 100,> 100,> 100,> 31.6,> 100,> 100,> 100,> 62.5,> 77.7,> 100,–,–,–
COc1c2c(cc3c1C(=O)Cc1ccc4c(c1CN(C)CC3)OCO4)OCO2,> 100,> 100,> 100,> 100,> 100,> 100,> 100,> 100,> 100,> 100,> 100,–,–,–
COC1/C=C/C(C)C(C(C)C(OC)C(C)CCC(=O)C(C)C(CC(=O)O)OC)OC(=O)/C=C/C=C(\C)CC(OC)CC2=CC(=O)O[C@H](C2)C(C)C(OC)CC(OC)/C=C/C(C)C(OC)C1 (stereo partly specified),1.25,0.207,> 4.35,–,> 4.35,> 4.35,> 4.35,> 4.35,3.05,> 4.35,2.19,3.1,> 4.35,> 4.35

# — PubChem BioAssay (NCI)
